Assay [1] concerns the target T1, Polyadenylate-binding protein 1 (Homo sapiens, UniProt P11940). Put plainly: PABP1 MLLE–PAM2 interaction inhibitors, dose response, miRNA deadenylation inhibitor project, biochemical, fluorescence polarization, Cy5-PAM2 peptide, secondary (AID 602260). The class given is functional. The following applies: read-out: IC50_Mean. For orientation: In fluorescence polarisation assays a small probe gives low polarisation when free and higher when bound to something large.

Assay [2] concerns the target T1, Polyadenylate-binding protein 1. The assay is described as follows: PABP1 MLLE–PAM2 binding inhibitor potency, dose response, biochemical, fluorescence polarization, FITC-PAM2 peptide (AID 602259). The following applies: read-out: IC50_Mean. The assay is classed as functional.
A further assay in a line: cells. The assay is classed as functional.
For a further assay, the target named is T2, Leucine aminopeptidase (Plasmodium falciparum 3D7, UniProt Q8IL11).
T2 sequence (Q8IL11 whole entry): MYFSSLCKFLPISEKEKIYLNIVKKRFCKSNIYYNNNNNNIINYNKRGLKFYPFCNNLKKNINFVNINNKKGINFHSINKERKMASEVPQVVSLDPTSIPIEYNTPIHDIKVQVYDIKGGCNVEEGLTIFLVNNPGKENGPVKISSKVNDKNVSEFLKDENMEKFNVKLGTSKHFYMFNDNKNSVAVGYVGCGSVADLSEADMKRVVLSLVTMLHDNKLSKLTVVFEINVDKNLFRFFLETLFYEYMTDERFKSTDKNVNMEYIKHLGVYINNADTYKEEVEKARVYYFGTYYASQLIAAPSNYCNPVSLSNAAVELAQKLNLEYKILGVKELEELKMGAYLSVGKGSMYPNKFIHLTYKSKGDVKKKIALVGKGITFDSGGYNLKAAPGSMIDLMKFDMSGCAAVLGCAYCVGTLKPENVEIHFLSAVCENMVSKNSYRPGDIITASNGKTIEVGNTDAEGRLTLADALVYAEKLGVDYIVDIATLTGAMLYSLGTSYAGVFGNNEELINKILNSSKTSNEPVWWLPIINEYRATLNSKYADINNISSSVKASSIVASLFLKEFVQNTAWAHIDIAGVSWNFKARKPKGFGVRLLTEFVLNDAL
The assay is described as follows: P. falciparum M17LAP inhibitors, primary screen, biochemical, fluorogenic H-Leu-NHMec substrate, 1536-well (AID 1619). The assay is classed as functional.

Assay [3] can be described thus: HEp-2 cell cytotoxicity, dose response, cytotoxicity control for RSV inhibitor project, HTS (AID 2410). The assay is classed as functional. The following applies: human respiratory syncytial virus.
The target in assay [4] is T3, Short transient receptor potential channel 4 (Mus musculus, UniProt Q9QUQ5).
T3 sequence (Q9QUQ5 whole entry): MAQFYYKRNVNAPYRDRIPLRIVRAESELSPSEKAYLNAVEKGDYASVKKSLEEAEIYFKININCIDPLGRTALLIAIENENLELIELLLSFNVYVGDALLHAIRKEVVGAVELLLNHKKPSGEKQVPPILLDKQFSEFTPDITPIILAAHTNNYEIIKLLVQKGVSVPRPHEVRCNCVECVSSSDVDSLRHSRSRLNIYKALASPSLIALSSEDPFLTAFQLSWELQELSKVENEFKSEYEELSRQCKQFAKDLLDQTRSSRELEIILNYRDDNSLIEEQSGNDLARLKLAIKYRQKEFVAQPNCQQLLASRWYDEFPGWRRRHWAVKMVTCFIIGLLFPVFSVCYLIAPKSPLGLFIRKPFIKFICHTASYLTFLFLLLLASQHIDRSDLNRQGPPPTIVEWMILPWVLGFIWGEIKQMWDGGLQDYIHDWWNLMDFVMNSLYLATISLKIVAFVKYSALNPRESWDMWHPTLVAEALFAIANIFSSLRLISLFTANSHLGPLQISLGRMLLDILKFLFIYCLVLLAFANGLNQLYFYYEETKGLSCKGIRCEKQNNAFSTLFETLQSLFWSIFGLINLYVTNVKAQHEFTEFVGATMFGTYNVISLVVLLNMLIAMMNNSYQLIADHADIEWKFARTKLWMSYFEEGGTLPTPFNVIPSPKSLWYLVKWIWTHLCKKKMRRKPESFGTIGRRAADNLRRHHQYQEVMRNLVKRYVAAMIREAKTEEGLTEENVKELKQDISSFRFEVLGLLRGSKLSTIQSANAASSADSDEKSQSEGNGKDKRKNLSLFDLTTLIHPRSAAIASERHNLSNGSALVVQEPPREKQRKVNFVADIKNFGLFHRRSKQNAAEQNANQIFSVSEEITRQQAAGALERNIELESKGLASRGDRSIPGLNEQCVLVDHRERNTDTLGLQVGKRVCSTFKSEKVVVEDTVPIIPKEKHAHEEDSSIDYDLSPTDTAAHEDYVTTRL
Put plainly: mouse TRPC4 channel activators, dose response, cell-based, HEK293 TRPC4/mu-opioid, Fluo-4 calcium (AID 434937). The class given is functional.

Assay [5] has as its system Streptococcus sp. 'group A'. The assay is described as follows: growth inhibition of control SK(-) GAS strain, dose response, counter-screen for streptokinase expression inhibitor project, luminescence, kanamycin, BacTiterGlo, confirmation (AID 1900). The class given is functional, organism-based. (In general: A counterscreen serves to expose hits that act by an unwanted route or on another target.)

A further assay has as its target T4, Streptokinase A (Streptococcus pyogenes serotype M1, UniProt P10520).
T4 sequence (P10520 whole entry): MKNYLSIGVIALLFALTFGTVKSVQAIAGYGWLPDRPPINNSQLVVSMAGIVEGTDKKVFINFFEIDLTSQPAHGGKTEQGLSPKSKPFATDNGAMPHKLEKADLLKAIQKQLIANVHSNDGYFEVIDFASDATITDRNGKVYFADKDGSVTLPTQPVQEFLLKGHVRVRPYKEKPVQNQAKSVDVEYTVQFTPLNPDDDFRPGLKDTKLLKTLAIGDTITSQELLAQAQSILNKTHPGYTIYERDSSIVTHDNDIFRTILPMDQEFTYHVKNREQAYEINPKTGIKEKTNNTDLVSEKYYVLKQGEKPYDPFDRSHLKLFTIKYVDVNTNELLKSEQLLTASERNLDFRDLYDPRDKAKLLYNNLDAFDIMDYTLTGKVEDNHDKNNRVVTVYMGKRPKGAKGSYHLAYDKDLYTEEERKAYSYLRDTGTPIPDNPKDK
The assay is described as follows: S. pyogenes streptokinase expression inhibitors, potency, dose response, plasminogen activation absorbance, OD405 (AID 1914).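 Note: secreted streptokinase activity via plasminogen activation per viability signal from cell pellet.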 The class given is functional, Streptococcus pyogenes M1 GAS.

The subject of a further assay is Streptococcus. The assay is described as follows: Group A Streptococcus viability loss, dose response, counter-screen for streptokinase expression inhibitor project, luminescence, BacTiterGlo (AID 1915).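 Note: potency for reduction of bacterial viability or growth.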 The class given is functional, organism-based.
For assay [6], the target named is T3, Short transient receptor potential channel 4. Put plainly: mouse TRPC4 channel inhibitors, dose response, cell-based, HEK293 TRPC4/mu-opioid, Fluo-4 calcium (AID 434942).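 Note: potency of inhibitors blocking the TRPC4 calcium response.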 The class given is functional.
In assay [7] the target is T5, RNA-binding protein pos-1 (Caenorhabditis elegans, UniProt G5EF15).
T5 sequence (G5EF15 whole entry): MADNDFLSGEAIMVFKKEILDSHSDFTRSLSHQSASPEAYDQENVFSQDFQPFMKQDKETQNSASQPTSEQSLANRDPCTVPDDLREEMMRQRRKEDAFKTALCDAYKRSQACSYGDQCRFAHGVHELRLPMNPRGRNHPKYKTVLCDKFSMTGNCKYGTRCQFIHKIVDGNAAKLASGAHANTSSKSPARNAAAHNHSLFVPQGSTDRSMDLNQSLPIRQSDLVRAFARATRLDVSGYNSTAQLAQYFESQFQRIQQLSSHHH
Put plainly: inhibitors of POS-1/mex-3 RNA binding, dose response, biochemical, fluorescence polarization (AID 1964).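 Note: purified POS-1 fused to maltose binding protein made in E. coli; potency of compounds blocking POS-1 binding to fluorescent RNA.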

Assay [8] concerns the target T6, Zinc finger protein mex-5 (Caenorhabditis elegans, UniProt Q9XUB2).
T6 sequence (Q9XUB2 whole entry): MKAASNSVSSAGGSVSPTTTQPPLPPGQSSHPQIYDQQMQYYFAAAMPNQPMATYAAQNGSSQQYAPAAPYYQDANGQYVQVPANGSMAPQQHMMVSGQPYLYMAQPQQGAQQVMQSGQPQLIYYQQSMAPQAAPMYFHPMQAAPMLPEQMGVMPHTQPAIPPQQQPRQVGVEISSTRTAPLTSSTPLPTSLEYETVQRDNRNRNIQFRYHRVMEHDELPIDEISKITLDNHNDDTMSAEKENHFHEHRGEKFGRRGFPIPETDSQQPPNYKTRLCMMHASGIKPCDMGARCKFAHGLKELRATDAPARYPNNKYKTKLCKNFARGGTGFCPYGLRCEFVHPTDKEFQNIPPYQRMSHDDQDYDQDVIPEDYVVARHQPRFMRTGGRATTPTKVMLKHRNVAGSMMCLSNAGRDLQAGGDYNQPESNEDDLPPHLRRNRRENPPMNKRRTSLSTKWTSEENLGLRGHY
Put plainly: MEX-5/TCR-2 RNA interaction inhibitors, dose response, biochemical, C. elegans, fluorescence polarization (AID 1960).

Assay [9] addresses FAD-linked sulfhydryl oxidase ALR (Homo sapiens, UniProt P55789). Put plainly: inhibitors of human ALR sulfhydryl oxidase, dose response, biochemical, H2O2 detection, luminescence, cherry-pick (AID 493248).
A short description of assay [10]: inhibitors of intracellular T. cruzi replication, confirmation, NIH3T3 host cells, beta-gal luminescence (AID 2044).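 Note: intracellular parasites grown in NIH/3T3 mouse fibroblasts as host cells; luminescent beta-galactosidase reporter signal from transgenic T. cruzi replicating inside host cells; inhibitors lower the luminescence signal.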 The assay is classed as functional, cell-based.
Assay [11] is described as follows: cytotoxicity toward NIH3T3 fibroblasts, dose response, counter-screen, cell-based, ATP luminescence, mouse fibroblasts (AID 2010).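 Note: cells exposed to compound for about 90 hours before reading.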 The class given is functional.

Activity calls are given as the source filed them.

The term CC50 denotes the concentration that lowers cell viability or growth by half. What is called EC50 is the midpoint of the concentration-response curve. By AC50 is commonly meant the concentration giving half of the maximal activity seen.

T1 sequence (P11940 whole entry): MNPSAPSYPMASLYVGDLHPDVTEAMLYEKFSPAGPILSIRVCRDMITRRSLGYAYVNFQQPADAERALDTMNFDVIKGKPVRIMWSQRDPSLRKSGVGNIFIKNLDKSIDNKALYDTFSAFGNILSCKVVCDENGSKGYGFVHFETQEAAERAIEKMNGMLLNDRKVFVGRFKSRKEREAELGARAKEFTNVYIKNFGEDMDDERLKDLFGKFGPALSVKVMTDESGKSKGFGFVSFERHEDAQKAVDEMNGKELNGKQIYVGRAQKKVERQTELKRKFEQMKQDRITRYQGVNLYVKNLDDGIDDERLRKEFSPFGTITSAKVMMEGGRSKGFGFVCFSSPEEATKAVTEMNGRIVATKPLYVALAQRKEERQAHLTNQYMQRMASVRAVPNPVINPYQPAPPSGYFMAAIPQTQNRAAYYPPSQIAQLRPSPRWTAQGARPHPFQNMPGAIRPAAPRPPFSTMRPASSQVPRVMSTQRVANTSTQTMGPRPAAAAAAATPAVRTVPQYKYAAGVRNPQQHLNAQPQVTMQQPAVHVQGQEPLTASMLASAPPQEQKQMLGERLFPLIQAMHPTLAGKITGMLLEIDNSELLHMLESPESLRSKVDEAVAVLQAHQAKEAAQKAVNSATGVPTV
Sequence of FAD-linked sulfhydryl oxidase ALR (P55789 whole entry): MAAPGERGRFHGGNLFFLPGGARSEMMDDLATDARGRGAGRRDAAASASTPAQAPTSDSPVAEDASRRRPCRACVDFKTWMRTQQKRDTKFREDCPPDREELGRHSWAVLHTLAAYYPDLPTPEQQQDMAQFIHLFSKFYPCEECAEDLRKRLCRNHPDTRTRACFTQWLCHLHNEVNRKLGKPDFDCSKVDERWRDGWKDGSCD

On to `Oc1cccc(C(=S)N2CCCCC2)c1`, for which the IC50 in assay [1] and in assay [2] was > 66 µM (inactive) each time.

With `Cc1cc(C)c2c(=O)c(C#N)coc2c1`, the IC50 in [1] and in [2] was > 66 µM (inactive) each time.

In the case of `COC1=CC(=NCl)C=CC1=NCl`, the IC50 in assay [1] was > 66 µM (inactive); in assay [2], 49.9 µM (inactive).

Regarding `O=C1NN(CCO)C(=S)Nc2ccccc21`, the IC50 in [1] and in [2] was > 66 µM (inactive) in each case.

As for `Cc1cc(C)c(C(=O)COC(=O)c2ccc([N+](=O)[O-])o2)cc1C`, the IC50 in the assay “cells” was 1 µM (active).

In the case of `Cc1ccn2nc(S(=O)(=O)Nc3c(F)cccc3F)nc2n1`, the IC50 in “cells” was 11.2 µM (active).

For `CC(C)(C)C1CCc2c(C(=O)NNC(=O)CCCC(=O)O)csc2C1` (centres undefined), the IC50 on Leucine aminopeptidase was 11.6 µM (active).

For `COc1ccc(CCNC(=O)c2cc(-c3ccc(C)c(C)c3O)[nH]n2)cc1OC`, the 50% cytotoxic concentration (CC50) in [3] is > 50 µM (active).

`CCN(CC)C(=O)Oc1ccc2cc(Br)ccc2c1`: the cytotoxic concentration (CC50) in [3] was 37 µM (active).

As for `COC(=O)COc1ccc(S(=O)(=O)N2CCCCCC2)cc1`, the IC50 in “cells” was 33.5 µM (active).

In the case of `Cc1ccc(Sc2cc(C(=O)NCCN(C)C)c3ccccc3n2)cc1`, the EC50 in assay [4] was 2.66 µM (active).

`CC(C)C1OC2c3cccc4cccc(c34)C2N1c1ccccc1` (centres undefined): the EC50 is 3.22 µM (active) in assay [5], 2.61 µM (active) on Streptokinase A and > 150 µM (not active) with Streptococcus. Further, the IC50 in [1] and in assay [2] was > 66 µM (inactive) in each case.

As for `Cc1[nH]c2ccccc2c1C(=O)C(C)OC(=O)c1ccc([N+](=O)[O-])o1` (centres undefined), in the assay “cells”, the IC50 is < 0.1 µM (active).

On to `CN(C)/C=C1\C(=O)N(c2ccc([N+](=O)[O-])cc2)N=C1c1ccccc1`, for which the CC50 in assay [3] was 31.8 µM (active). Also, the values for the EC50 in assay [6] and in [4] were 15 µM (active) and 10.6 µM (active), respectively.

Consider `COc1ccccc1N1CCN(/N=C/c2c(C)nn(-c3ccccc3)c2C)CC1`, for which the IC50 in assay [1] and in [2] was > 66 µM (inactive) throughout.

As to `Nc1cccc2c1C(=O)N(Cc1nnc(-c3ccccc3Br)o1)C2=O`, the EC50 was 40 µM (active) in assay [7] and 29.4 µM (active) in assay [8]. In addition, the values for the IC50 in assay [1] and in assay [2] were > 66 µM (inactive) and 48.1 µM (inactive), respectively.

In the case of `CCO/C(O)=C/c1nc2ccccc2oc1=O`, the IC50 in the assay “cells” was 2.88 µM (active).

Take `CCOC(=O)C1(CCc2ccccc2)CCN(Cc2ccc(O)cc2)CC1`: the EC50 was 2.99 µM (active) in [6] and 5.31 µM (active) in [4].

Turning to `CC(=O)NC(=S)Nc1cccc2c(C)cc(C)nc12`, in assay [3], the 50% cytotoxic concentration (CC50) is > 50 µM (active).

`Cc1ccc(-c2csc(N=C(N)N)n2)cc1`: the CC50 in [3] is 46.4 µM (active). Also, in assay [9], the concentration at half-maximal activity (AC50) is 1.05 µM (active).

For `Cc1ccc(-c2noc(CCCC(=O)Nc3cccnc3)n2)cc1`, in “cells”, the IC50 is 37.4 µM (active).

In the case of `O/N=C/c1c[nH]c2ccccc12`, on Leucine aminopeptidase, the IC50 is 13.2 µM (active).

For `Cc1ccc([N+](=O)[O-])cc1/N=C(\c1cccc(Br)c1)N1CCOCC1`, the CC50 in [3] is 40.2 µM (active).

For the molecule `NC(=O)c1cccc2c1-c1ccccc1/C2=N/NC(N)=S`, the IC50 in assay [1] and in assay [2] was > 66 µM (inactive) throughout.

Take `CC1N(C)c2cc(NC(=O)c3cccs3)c(P(=O)(Nc3ccc([N+](=O)[O-])cc3)N3CCOCC3)cc2C1(C)C` (centres undefined): in assay [3], the CC50 is 32.1 µM (active). Besides, the EC50 is 1.98 µM (active) in assay [10] and > 30 µM (not active) in assay [11].
